Patent publication US20230416330A1, “Optimized GIP Peptide Analogues” (Antag Therapeutics ApS, priority 2019, published 2023)
Like-named read-outs stand apart in the source and are kept apart here. Non-standard residues stand in square brackets, D forms with d. Residues, ends and D or L forms follow the SMILES beside them. *: point of attachment. C16 diacid = O=C(O)CCCCCCCCCCCCCCC(=O)*; Nle = CCCC[C@H](N)C(=O)O; Aib = CC(C)(N)C(=O)O

Legend:
[1] = Physical stability: fibril formation in Thioflavin T (ThT) assay with agitation; type: physicochemical; conditions: 25° C., agitation
Procedure, shortened: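 Read-out is continuous ThT fluorescence at 486 nm, with lag time taken where signal reaches 10% between pre- and post-transition baselines. Filtered samples (1, 5, 7.5 or 15 mg/ml; pH 7.4 phosphate buffer or NaOH-adjusted water) were stressed at 25° C. by orbital rotation at 300 rpm with one silica bead per well.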

[2] = Solubility by visual inspection of peptide solutions; type: physicochemical
Procedure, shortened: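 Solubility scored by eye: clear, colorless appearance after gentle mixing. Samples prepared at 1, 5, 7.5 or 15 mg/ml in either pH 7.4 water (NaOH-adjusted) or 50 mM sodium phosphate buffer, pH 7.4.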

[3] = target: T1, human GIP receptor (Homo sapiens, UniProt P48546); assay: cAMP assay Alternative 1 (CisBio assay), GIPR antagonism; type: cell-based; conditions: for cAMP antagonism % inhib: % inhibition of Emax
T1 construct: host or cells: HEK-293 cells, transient transfection (Lipofectamine 2000), cDNA in pCMV-Script vector
T1 sequence (P48546 22-466): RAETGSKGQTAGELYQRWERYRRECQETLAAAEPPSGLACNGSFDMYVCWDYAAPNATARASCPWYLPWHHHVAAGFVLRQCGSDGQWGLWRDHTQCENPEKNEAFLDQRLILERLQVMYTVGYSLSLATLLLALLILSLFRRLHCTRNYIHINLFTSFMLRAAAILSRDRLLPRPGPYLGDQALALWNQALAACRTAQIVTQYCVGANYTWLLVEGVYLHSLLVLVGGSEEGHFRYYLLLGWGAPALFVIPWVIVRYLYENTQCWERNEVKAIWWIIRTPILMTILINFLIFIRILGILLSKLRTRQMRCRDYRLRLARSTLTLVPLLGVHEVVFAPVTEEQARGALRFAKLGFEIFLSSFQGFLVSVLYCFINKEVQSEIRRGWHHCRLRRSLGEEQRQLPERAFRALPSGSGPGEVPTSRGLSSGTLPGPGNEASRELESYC
Procedure, shortened: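 HEK293 cells transiently transfected with hGIPR, compounds diluted in HBSS/HEPES/pluronic/casein with 500 uM IBMX; decrease in intracellular cAMP read by HTRF (665/620 nm) and converted via cAMP standard curve. pIC50 from four-parameter fit; agonism tested separately after 30 min at 37° C.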

| Structure (SMILES) | Avr lag time (h) ([1]; 1 mg/ml, TFA, Phosphate (7.4)) | Avr lag time (h) ([1]; 5 mg/ml, Na, MilliQ (8)) | Avr lag time (h) ([1]; 7.5 mg/ml, Na, MilliQ (8)) | Avr lag time (h) ([1]; 15 mg/ml, Na, MilliQ (8)) | Visual appearance ([2]; 1 mg/ml, TFA, Phosphate (7.4)) | Visual appearance ([2]; 7.5 mg/ml, Na, MilliQ (8)) | Visual appearance ([2]; 15 mg/ml, Na, MilliQ (8)) | IC50 [3] [pM] | cAMP antagonism % inhib ([3]; Table 2B) [%] | Avr lag time (h) ([1]; 1 mg/ml, Na, MilliQ (7.7)) | Visual appearance ([2]; 1 mg/ml, Na, MilliQ (7.7)) | IC50 ([3]; Table 2B, HEK-293 cells transiently expressing hGIPR, agonist GIP1-42 at EC50, read-out: cAMP antagonism) [pM] |
| --- | --- | --- | --- | --- | --- | --- | --- | --- | --- | --- | --- | --- |
| CC[C@H](C)[C@H](NC(=O)[C@H](CCCCN)NC(=O)[C@H](CC(=O)O)NC(=O)[C@H](CCSC)NC(=O)C(C)(C)NC(=O)[C@@H](NC(=O)[C@H](CO)NC(=O)[C@H](Cc1ccc(O)cc1)NC(=O)[C@H](CC(=O)O)NC(=O)[C@H](CO)NC(=O)[C@@H](NC(=O)[C@H](Cc1ccccc1)NC(=O)[C@@H](NC(=O)CNC(=O)[C@@H](N)CCC(=O)O)[C@@H](C)O)[C@@H](C)CC)[C@@H](C)CC)C(=O)N[C@@H](CCCCNC(=O)CCCCCCCCCCCCCCC(=O)O)C(=O)N[C@@H](CCC(N)=O)C(=O)N[C@@H](CCC(N)=O)C(=O)N[C@@H](CC(=O)O)C(=O)N[C@@H](Cc1ccccc1)C(=O)N[C@H](C(=O)N[C@@H](CCC(=O)O)C(=O)N[C@@H](Cc1c[nH]c2ccccc12)C(=O)N[C@@H](CC(C)C)C(=O)N[C@@H](CC(C)C)C(=O)N[C@@H](C)C(=O)N[C@@H](CCC(N)=O)C(=O)N[C@@H](CCCCN)C(=O)N1CCC[C@H]1C(=O)N[C@@H](CO)C(=O)N[C@@H](CO)C(=O)NCC(=O)N[C@@H](C)C(=O)N1CCC[C@H]1C(=O)N1CCC[C@H]1C(=O)N1CCC[C@H]1C(=O)N[C@@H](CO)C(=O)O)C(C)C [AT665] (H-EGTFISDYSI[Aib]MDKIK(C16 diacid)QQDFVEWLLAQKPSSGAPPPS-OH; N-terminus assumed) | fnd (Fnd = fibrils not detected within experiment time (96 hours) with agitation.) | fnd (Fnd = fibrils not detected within experiment time (96 hours) with agitation.) | fnd (Fnd = fibrils not detected within experiment time (96 hours) with agitation.) | fnd (Fnd = fibrils not detected within experiment time (96 hours) with agitation.) | Clear | Clear | Clear | 150 | 88 |  |  |  |
| CC[C@H](C)[C@H](NC(=O)[C@H](CO)NC(=O)[C@H](Cc1ccc(O)cc1)NC(=O)[C@H](CC(=O)O)NC(=O)[C@H](CO)NC(=O)[C@@H](NC(=O)[C@H](Cc1ccccc1)NC(=O)[C@@H](NC(=O)CNC(=O)[C@@H](N)CCC(=O)O)[C@@H](C)O)[C@@H](C)CC)C(=O)N[C@@H](C)C(=O)N[C@@H](CC(C)C)C(=O)N[C@@H](CC(=O)O)C(=O)N[C@@H](CCCCN)C(=O)N[C@H](C(=O)N[C@@H](CCCCNC(=O)CCCCCCCCCCCCCCC(=O)O)C(=O)N[C@@H](CCC(N)=O)C(=O)N[C@@H](CCC(N)=O)C(=O)N[C@@H](CC(=O)O)C(=O)N[C@@H](Cc1ccccc1)C(=O)N[C@H](C(=O)N[C@@H](CCC(=O)O)C(=O)N[C@@H](Cc1c[nH]c2ccccc12)C(=O)N[C@@H](CC(C)C)C(=O)N[C@@H](CC(C)C)C(=O)N[C@@H](C)C(=O)N[C@@H](CCC(N)=O)C(=O)N[C@@H](CCCCN)C(=O)N1CCC[C@H]1C(=O)N[C@@H](CO)C(=O)N[C@@H](CO)C(=O)NCC(=O)N[C@@H](C)C(=O)N1CCC[C@H]1C(=O)N1CCC[C@H]1C(=O)N1CCC[C@H]1C(=O)N[C@@H](CO)C(=O)O)C(C)C)[C@@H](C)CC [AT668] (H-EGTFISDYSIALDKIK(C16 diacid)QQDFVEWLLAQKPSSGAPPPS-OH; N-terminus assumed) | fnd (Fnd = fibrils not detected within experiment time (96 hours) with agitation.) |  |  |  | Clear |  |  |  | 92 |  |  |  |
| CC[C@H](C)[C@H](NC(=O)[C@H](CCCCN)NC(=O)[C@H](CCC(=O)O)NC(=O)[C@H](CCSC)NC(=O)C(C)(C)NC(=O)[C@@H](NC(=O)[C@H](CO)NC(=O)[C@H](Cc1ccc(O)cc1)NC(=O)[C@H](CCC(=O)O)NC(=O)[C@H](CO)NC(=O)[C@@H](NC(=O)[C@H](Cc1ccccc1)NC(=O)[C@@H](NC(=O)CNC(=O)[C@@H](N)CCC(=O)O)[C@@H](C)O)[C@@H](C)CC)[C@@H](C)CC)C(=O)N[C@@H](CCCCNC(=O)CCCCCCCCCCCCCCC(=O)O)C(=O)N[C@@H](CCC(N)=O)C(=O)N[C@@H](CCC(N)=O)C(=O)N[C@@H](CC(=O)O)C(=O)N[C@@H](Cc1ccccc1)C(=O)N[C@H](C(=O)N[C@@H](CCC(=O)O)C(=O)N[C@@H](Cc1c[nH]c2ccccc12)C(=O)N[C@@H](CC(C)C)C(=O)N[C@@H](CC(C)C)C(=O)N[C@@H](C)C(=O)N[C@@H](CCC(N)=O)C(=O)N[C@@H](CCCCN)C(=O)N1CCC[C@H]1C(=O)N[C@@H](CO)C(=O)N[C@@H](CO)C(=O)NCC(=O)N[C@@H](C)C(=O)N1CCC[C@H]1C(=O)N1CCC[C@H]1C(=O)N1CCC[C@H]1C(=O)N[C@@H](CO)C(=O)O)C(C)C [AT616] (H-EGTFISEYSI[Aib]MEKIK(C16 diacid)QQDFVEWLLAQKPSSGAPPPS-OH; N-terminus assumed) |  |  |  |  |  |  |  |  | 100 | fnd (Fnd = fibrils not detected within experiment time (96 hours) with agitation.) | Clear |  |
| CCCC[C@H](NC(=O)C(C)(C)NC(=O)[C@@H](NC(=O)[C@H](CO)NC(=O)[C@H](Cc1ccc(O)cc1)NC(=O)[C@H](CCC(=O)O)NC(=O)[C@H](CO)NC(=O)[C@@H](NC(=O)[C@H](Cc1ccccc1)NC(=O)[C@@H](NC(=O)CNC(=O)[C@@H](N)CCC(=O)O)[C@@H](C)O)[C@@H](C)CC)[C@@H](C)CC)C(=O)N[C@@H](CCC(=O)O)C(=O)N[C@@H](CCCCN)C(=O)N[C@H](C(=O)N[C@@H](CCCCNC(=O)CCCCCCCCCCCCCCC(=O)O)C(=O)N[C@@H](CCC(N)=O)C(=O)N[C@@H](CCC(N)=O)C(=O)N[C@@H](CCC(=O)O)C(=O)N[C@@H](Cc1ccccc1)C(=O)N[C@H](C(=O)N[C@@H](CCC(=O)O)C(=O)N[C@@H](Cc1c[nH]c2ccccc12)C(=O)N[C@@H](CC(C)C)C(=O)N[C@@H](CC(C)C)C(=O)N[C@@H](C)C(=O)N[C@@H](CCC(N)=O)C(=O)N[C@@H](CCCCN)C(=O)N1CCC[C@H]1C(=O)N[C@@H](CO)C(=O)N[C@@H](CO)C(=O)NCC(=O)N[C@@H](C)C(=O)N1CCC[C@H]1C(=O)N1CCC[C@H]1C(=O)N1CCC[C@H]1C(=O)N[C@@H](CO)C(=O)O)C(C)C)[C@@H](C)CC [AT674] (H-EGTFISEYSI[Aib][Nle]EKIK(C16 diacid)QQEFVEWLLAQKPSSGAPPPS-OH; N-terminus assumed) | fnd (Fnd = fibrils not detected within experiment time (96 hours) with agitation.) |  |  |  | Clear |  |  |  | 93 |  |  | 447 |
